# Test results reported in ChEMBL document CHEMBL3259679, “Synthesis of novel tricyclic chromenone-based inhibitors of IRE-1 RNase activity” (J Med Chem, 2014).
# Active and inactive are the calls of the source. The calls are words filed in the database; no cut-off is given here.
# Columns and labels:
# [1] = Upregulation of IRE-1 expression in human Mino cells at 20 uM after 24 hrs by immunoblotting analysis; assay type: functional, cell-based
# Mino [2] = settings: Homo sapiens, 20 uM
# B-cell [3] = settings: Mus musculus, 20 uM
# [4] = Upregulation of IRE-1 expression in human Jeko cells at 20 uM after 24 hrs by immunoblotting analysis; assay type: functional, cell-based; settings: JeKo-1
# JeKo-1 [5] = settings: Homo sapiens, 20 uM
# B-cell [6] = assay: Inhibition of XBP-1s expression in LPS-stimulated wild-type mouse B lymphocytes at 20 uM after 24 hrs by Western blotting analysis
# [7] = Drug degradation after 12 hrs by LC-MS analysis; assay type: physicochemical
# JeKo-1 [8] = assay: cells; settings: Homo sapiens, JeKo-1, 24 h
# [9] = molecular target: Serine/threonine-protein kinase/endoribonuclease IRE1 (Homo sapiens, UniProt O75460); assay: Inhibition of human recombinant puritin-His-tagged IRE-1 RNase expressed in SF21 cells using XBP-1 RNA stem loop as substrate incubated for 30 mins prior to substrate addition measured after 2 hrs by FRET-suppression assay
# Serine/threonine-protein kinase/endoribonuclease IRE1, sequence (O75460 whole entry): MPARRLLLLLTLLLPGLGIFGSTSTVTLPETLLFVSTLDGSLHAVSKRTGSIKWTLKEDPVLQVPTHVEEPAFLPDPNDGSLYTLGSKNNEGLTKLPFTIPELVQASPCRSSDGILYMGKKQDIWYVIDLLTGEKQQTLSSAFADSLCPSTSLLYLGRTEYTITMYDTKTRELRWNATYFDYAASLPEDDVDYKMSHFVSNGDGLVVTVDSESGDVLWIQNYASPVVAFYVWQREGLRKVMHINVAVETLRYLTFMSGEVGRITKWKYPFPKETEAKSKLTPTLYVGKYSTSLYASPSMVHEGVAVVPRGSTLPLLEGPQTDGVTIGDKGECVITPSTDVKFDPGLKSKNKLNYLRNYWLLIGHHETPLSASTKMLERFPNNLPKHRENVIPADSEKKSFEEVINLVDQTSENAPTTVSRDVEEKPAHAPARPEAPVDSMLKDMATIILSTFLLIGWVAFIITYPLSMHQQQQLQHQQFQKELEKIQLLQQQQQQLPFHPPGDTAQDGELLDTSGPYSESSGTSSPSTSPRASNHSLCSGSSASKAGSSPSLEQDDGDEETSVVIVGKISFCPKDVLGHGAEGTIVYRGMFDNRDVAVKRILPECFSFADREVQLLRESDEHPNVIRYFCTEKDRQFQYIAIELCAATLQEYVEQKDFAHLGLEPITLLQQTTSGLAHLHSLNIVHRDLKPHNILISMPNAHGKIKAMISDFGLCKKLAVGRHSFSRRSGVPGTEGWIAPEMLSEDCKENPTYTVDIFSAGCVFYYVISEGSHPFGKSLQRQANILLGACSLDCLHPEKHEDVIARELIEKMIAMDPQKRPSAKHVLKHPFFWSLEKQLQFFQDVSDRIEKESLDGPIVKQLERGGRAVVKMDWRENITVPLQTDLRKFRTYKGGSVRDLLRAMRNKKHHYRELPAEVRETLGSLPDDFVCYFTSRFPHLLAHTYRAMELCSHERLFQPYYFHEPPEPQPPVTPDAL
# [10] = Growth inhibition of human Jeko cells after 48 hrs by XTT assay; assay type: functional, JeKo-1
# Mino [11] = assay: Induction of apoptosis in human Mino cells assessed as PARP cleavage at 50 uM after 72 hrs by immunoblotting analysis; assay type: functional, cell-based
# JeKo-1 [12] = assay: Induction of apoptosis in human Jeko cells assessed as PARP cleavage at 50 uM after 72 hrs by immunoblotting analysis; assay type: functional, cell-based
# [13] = Growth inhibition of human Mino cells after 48 hrs by XTT assay; assay type: functional
SMILES,Activity [1],inhibition (Mino [2]),inhibition (B-cell [3]),Activity [4],inhibition (JeKo-1 [5]),inhibition (B-cell [6]),other results
CC(=O)N1CCc2c(c(=O)oc3c(C=O)c(O)ccc23)C1,Active,Active,Active,Active,Active,,
C=CCOC(=O)N1CCc2c(c(=O)oc3c(C4OCCCO4)c(O)ccc23)C1,,,,,,Active,Stability [7]: Stable
C=CCOC(=O)N1CCc2c(c(=O)oc3c(C(=O)OC)c(O)ccc23)C1,,,inactive,,,,
Cc1cc(=O)oc2c(C=O)c(O)ccc12,,,,,,Active,IC50 (JeKo-1 [8]): 1.57 µM
C=CCOC(=O)N1CCc2c(c(=O)oc3c(C=O)c(OCc4ccccc4)ccc23)C1,,,,,,,IC50 [9]: > 20 µM
C=CCOC(=O)N1CCc2c(c(=O)oc3c(C(=O)O)c(O)ccc23)C1,,,inactive,,,,
C=CCOC(=O)N1CCc2c(c(=O)oc3c(/C=C/C(=O)OCC)c(O)ccc23)C1,,,inactive,,,,
CN1CCc2c(c(=O)oc3c(C=O)c(O)ccc23)C1,Active,Active,Active,Active,Active,,GI [10]: 66 µM; Activity (Mino [11]): Active; Activity (JeKo-1 [12]): Active; GI [13]: 55 µM
C=CCOC(=O)N1CCc2c(c(=O)oc3c(C=O)c(O)ccc23)C1,Active,Active,,Active,Active,Active,
